# Test results from ChEMBL document CHEMBL4190379 (Bioorg Med Chem Lett, 2018).
# Legend:
# [1] = Oral bioavailability in mouse at 10 mg/kg; assay type: ADME, organism-based; details: in vivo
# [2] = target: Nucleosome-remodeling factor subunit BPTF (Homo sapiens) (UniProt Q12830); assay: Binding affinity to human FALZ expressed in bacterial system assessed as remaining binding level at 1 uM by BROMOscan assay relative to control
# [3] = target: Histone acetyltransferase KAT2A (Homo sapiens) (UniProt Q92830); assay: Binding affinity to human GCN5L2 expressed in bacterial system assessed as remaining binding level at 1 uM by BROMOscan assay relative to control
# Sequence of Histone acetyltransferase KAT2A (Homo sapiens) (Q92830 2-837 limits assumed): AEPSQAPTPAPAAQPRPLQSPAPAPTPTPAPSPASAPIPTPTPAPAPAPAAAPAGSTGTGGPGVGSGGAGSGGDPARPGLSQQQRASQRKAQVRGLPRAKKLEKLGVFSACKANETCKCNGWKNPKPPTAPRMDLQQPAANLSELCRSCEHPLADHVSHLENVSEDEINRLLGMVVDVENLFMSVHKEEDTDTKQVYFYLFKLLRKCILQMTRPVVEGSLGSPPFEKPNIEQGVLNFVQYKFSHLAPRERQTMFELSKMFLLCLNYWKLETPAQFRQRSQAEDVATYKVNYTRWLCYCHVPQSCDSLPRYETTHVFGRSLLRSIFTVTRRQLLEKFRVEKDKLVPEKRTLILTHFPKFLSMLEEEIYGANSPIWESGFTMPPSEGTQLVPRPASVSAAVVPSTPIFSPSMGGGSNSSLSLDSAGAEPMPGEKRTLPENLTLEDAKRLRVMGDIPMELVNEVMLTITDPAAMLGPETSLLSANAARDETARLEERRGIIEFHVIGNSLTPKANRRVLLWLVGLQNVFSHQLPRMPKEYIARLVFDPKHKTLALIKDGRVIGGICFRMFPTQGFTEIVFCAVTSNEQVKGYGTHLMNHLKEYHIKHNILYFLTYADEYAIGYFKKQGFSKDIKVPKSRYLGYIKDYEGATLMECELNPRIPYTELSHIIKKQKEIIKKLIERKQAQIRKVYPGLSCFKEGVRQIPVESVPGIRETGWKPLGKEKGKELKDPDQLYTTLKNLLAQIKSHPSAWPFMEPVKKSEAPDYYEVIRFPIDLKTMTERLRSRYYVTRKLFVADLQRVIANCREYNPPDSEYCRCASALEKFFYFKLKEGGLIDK
# [4] = target: Bromodomain adjacent to zinc finger domain protein 2A (Homo sapiens) (UniProt Q9UIF9); assay: Binding affinity to human BAZ2A expressed in bacterial system assessed as remaining binding level at 1 uM by BROMOscan assay relative to control
# [5] = target: Bromodomain adjacent to zinc finger domain protein 2B (Homo sapiens) (UniProt Q9UIF8); assay: Binding affinity to human BAZ2B expressed in bacterial system assessed as remaining binding level at 1 uM by BROMOscan assay relative to control
# Sequence of Bromodomain adjacent to zinc finger domain protein 2B (Homo sapiens) (Q9UIF8 whole entry, the tested form may be a part): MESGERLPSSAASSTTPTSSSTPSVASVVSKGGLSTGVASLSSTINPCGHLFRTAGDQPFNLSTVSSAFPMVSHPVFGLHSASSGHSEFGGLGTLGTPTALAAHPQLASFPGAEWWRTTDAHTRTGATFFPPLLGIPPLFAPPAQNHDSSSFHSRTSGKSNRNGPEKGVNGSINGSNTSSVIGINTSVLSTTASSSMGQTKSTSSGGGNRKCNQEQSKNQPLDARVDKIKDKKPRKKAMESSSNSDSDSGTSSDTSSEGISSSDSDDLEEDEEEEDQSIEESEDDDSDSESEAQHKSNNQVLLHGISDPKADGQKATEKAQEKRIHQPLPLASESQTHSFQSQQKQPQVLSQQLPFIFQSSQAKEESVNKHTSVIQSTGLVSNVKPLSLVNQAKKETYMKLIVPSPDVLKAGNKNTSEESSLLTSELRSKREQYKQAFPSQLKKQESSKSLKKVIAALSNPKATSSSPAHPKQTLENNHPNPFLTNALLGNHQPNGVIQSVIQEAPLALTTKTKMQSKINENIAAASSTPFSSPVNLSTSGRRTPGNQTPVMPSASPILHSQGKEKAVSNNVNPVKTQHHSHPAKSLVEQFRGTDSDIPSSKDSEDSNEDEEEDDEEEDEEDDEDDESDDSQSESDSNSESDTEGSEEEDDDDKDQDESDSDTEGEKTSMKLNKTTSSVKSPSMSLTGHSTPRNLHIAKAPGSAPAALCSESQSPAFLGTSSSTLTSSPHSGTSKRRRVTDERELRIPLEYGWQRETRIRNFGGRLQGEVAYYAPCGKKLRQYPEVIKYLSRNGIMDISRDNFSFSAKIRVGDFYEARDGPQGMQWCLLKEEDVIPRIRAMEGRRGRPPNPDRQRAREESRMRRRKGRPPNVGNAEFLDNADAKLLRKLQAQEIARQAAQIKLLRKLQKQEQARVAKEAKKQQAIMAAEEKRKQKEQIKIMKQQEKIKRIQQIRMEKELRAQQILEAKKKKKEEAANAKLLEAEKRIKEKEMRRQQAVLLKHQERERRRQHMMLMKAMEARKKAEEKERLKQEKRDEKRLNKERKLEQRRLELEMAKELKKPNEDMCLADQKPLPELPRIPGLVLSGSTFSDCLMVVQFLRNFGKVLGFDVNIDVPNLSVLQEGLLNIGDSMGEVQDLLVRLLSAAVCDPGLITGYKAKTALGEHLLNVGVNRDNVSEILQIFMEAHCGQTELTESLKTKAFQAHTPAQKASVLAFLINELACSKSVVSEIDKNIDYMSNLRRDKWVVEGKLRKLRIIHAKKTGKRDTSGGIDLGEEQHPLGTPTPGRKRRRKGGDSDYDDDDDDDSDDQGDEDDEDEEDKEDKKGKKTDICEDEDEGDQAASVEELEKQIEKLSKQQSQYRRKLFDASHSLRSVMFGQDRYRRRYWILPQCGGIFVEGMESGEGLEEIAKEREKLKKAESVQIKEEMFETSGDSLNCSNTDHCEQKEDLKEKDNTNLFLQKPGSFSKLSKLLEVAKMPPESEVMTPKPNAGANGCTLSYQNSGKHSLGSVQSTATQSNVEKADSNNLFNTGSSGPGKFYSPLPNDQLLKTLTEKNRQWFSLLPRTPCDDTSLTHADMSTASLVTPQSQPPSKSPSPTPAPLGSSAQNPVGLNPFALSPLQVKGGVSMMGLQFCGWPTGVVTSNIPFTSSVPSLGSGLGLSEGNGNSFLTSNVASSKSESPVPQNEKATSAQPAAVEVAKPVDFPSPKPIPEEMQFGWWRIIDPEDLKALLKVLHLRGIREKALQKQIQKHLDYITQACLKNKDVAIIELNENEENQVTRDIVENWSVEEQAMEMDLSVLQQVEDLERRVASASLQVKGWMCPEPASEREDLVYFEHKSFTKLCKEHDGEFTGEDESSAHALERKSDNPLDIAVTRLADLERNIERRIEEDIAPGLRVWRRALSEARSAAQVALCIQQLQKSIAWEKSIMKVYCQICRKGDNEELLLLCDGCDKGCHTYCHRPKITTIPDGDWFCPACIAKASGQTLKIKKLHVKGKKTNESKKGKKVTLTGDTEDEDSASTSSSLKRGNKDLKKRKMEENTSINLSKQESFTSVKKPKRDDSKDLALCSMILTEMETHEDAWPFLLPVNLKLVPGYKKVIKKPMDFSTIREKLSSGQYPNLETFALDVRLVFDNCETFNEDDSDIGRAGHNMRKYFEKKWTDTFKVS
# [6] = target: T1, Bromodomain-containing protein 4 (Homo sapiens, UniProt O60885); assay: Binding affinity to BRD4 bromodomain 1 (K57 to E168 amino acids) (unknown origin) using Alexa647-labeled BET-inhibitor as fluorescent probe by bromodomain TR-FRET binding assay
# [7] = target: T2, ATPase family AAA domain-containing protein 2B (Homo sapiens) (UniProt Q9ULI0); assay: Binding affinity to human ATAD2B expressed in bacterial system assessed as remaining binding level at 1 uM by BROMOscan assay relative to control
# T2 sequence (whole entry): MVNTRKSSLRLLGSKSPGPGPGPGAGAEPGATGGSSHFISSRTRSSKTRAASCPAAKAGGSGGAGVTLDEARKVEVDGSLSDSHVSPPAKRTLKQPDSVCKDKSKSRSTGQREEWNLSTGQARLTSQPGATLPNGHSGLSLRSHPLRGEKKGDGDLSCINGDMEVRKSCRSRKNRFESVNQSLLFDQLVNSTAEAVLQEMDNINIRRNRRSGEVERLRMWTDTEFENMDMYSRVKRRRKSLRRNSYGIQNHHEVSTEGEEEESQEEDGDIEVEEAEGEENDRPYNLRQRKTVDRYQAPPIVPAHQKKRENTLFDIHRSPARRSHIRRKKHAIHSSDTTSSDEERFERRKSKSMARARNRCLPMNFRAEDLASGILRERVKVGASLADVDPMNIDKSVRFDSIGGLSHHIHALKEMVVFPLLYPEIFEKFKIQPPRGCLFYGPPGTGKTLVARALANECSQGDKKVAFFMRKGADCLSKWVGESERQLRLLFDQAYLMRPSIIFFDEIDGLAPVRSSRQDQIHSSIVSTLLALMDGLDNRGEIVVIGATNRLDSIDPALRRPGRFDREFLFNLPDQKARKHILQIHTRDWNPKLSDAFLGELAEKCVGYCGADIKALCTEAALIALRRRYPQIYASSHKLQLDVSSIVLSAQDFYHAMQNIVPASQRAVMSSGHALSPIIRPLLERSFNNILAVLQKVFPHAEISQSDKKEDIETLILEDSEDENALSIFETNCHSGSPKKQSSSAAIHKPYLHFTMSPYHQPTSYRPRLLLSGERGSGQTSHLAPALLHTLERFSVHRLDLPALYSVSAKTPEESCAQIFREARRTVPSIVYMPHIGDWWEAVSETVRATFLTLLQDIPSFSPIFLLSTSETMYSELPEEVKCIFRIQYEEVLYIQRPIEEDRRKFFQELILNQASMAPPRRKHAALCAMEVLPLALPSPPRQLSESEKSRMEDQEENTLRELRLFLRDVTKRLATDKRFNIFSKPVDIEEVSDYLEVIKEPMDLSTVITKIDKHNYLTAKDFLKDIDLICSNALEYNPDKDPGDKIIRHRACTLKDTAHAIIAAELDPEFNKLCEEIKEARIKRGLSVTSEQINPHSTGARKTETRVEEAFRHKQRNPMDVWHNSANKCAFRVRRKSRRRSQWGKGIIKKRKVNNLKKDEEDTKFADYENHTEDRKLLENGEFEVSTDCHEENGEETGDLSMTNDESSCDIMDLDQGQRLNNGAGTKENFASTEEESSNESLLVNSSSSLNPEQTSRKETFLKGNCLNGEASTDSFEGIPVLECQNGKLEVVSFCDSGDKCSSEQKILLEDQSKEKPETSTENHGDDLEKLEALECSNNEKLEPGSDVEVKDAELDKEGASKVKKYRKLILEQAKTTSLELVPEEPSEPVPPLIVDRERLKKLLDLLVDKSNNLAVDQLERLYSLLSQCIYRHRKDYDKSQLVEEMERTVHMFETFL
# [8] = target: Protein polybromo-1 (Homo sapiens) (UniProt Q86U86); assay: Binding affinity to human PBRM1 bromodomain 5 expressed in bacterial system assessed as remaining binding level at 1 uM by BROMOscan assay relative to control
# Sequence of Protein polybromo-1 (Homo sapiens) (Q86U86 whole entry, the tested form may be a part): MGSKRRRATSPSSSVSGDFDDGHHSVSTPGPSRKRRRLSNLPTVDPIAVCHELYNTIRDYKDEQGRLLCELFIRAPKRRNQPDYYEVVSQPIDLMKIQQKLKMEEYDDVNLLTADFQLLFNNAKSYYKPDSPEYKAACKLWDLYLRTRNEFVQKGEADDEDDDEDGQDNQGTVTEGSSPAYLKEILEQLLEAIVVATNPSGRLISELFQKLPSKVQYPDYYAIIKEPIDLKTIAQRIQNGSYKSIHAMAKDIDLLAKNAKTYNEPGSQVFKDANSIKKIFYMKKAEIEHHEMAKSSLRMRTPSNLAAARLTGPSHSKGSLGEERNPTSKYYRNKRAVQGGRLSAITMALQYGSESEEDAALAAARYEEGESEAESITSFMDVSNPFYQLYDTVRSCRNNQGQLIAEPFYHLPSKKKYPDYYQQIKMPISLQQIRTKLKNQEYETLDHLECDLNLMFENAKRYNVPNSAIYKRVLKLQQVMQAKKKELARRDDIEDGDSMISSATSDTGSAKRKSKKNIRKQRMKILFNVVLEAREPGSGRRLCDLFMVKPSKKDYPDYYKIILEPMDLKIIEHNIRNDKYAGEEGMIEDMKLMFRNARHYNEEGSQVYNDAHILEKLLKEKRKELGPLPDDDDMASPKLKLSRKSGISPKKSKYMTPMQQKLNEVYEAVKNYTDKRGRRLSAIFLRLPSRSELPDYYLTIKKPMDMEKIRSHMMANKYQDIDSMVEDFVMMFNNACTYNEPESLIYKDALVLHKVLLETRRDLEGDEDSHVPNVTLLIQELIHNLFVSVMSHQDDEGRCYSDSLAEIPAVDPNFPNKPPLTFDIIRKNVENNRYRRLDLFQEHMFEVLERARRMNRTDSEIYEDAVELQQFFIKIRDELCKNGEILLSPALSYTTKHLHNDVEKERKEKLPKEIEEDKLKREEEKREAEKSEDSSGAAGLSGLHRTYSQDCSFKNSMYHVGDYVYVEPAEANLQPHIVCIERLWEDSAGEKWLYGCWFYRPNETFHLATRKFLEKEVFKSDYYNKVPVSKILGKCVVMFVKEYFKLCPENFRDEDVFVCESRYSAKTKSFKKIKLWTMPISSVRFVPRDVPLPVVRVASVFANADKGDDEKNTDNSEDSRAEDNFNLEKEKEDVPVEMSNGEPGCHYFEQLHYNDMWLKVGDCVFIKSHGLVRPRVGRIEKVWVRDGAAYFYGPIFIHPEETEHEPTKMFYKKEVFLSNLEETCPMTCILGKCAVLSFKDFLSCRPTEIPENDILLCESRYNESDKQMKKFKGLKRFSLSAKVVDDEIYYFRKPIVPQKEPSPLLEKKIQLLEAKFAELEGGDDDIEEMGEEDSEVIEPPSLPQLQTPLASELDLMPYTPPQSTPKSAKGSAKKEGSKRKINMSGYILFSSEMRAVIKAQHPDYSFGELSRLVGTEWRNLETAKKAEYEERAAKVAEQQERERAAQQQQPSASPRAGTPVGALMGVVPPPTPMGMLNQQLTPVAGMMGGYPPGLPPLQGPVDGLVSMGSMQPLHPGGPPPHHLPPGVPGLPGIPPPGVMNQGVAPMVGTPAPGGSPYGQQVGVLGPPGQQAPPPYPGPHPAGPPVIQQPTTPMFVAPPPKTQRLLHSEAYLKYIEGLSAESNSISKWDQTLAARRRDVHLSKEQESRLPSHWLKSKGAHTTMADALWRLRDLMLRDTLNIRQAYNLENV
# [9] = target: Bromodomain testis-specific protein (Homo sapiens, UniProt Q58F21); assay: Binding affinity to BRDT bromodomain 1 to 2 (N21to P380 amino acids) (unknown origin) using Alexa647-labeled BET-inhibitor as fluorescent probe by bromodomain TR-FRET binding assay
# [10] = target: Transcription initiation factor TFIID subunit 1 (Homo sapiens) (UniProt P21675); assay: Binding affinity to human TAF1 bromodomain 2 expressed in bacterial system assessed as remaining binding level at 1 uM by BROMOscan assay relative to control
# [11] = target: SWI/SNF-related matrix-associated actin-dependent regulator of chromatin subfamily A member 2 (Homo sapiens) (UniProt P51531); assay: Binding affinity to human SMARCA2 expressed in bacterial system assessed as remaining binding level at 1 uM by BROMOscan assay relative to control
# [12] = target: T1, Bromodomain-containing protein 4; assay: Binding affinity to BRD4 in human H1299 cells stably expressing E2 and HPV16-LCR luciferase reporter incubated for 24 hrs by Bright-Glo luciferase reporter gene assay based BRD4 engagement assay; assay type: cell-based
# [13] = target: T1, Bromodomain-containing protein 4; assay: Binding affinity to BRD4 bromodomain 2 (E352 to M457 amino acids) (unknown origin) using Alexa647-labeled BET-inhibitor as fluorescent probe by bromodomain TR-FRET binding assay
SMILES,bioavailability [1],Activity [2],Activity [3],Activity [4],Activity [5],Ki [6],Activity [7],Activity [8],Ki [9],Activity [10],Activity [11],IC50 [12],Ki [13]
Cn1cc2c3c(c[nH]c(=O)c31)-c1cc(CS(C)(=O)=O)ccc1N(c1ccc(F)cc1)C2,34%,100%,87%,100%,100%,1.2 nM,76%,96%,5.9 nM,95%,96%,2.5 nM,2.5 nM
Cn1cc2c3c(c[nH]c3c1=O)CN(c1ccc(F)cc1F)c1ccc(CS(C)(=O)=O)cc1-2,93%,76%,97%,47%,70%,2.6 nM,60%,81%,4.2 nM,3.8%,82%,3.6 nM,0.73 nM
Cn1cc2c3c(c[nH]c3c1=O)CN(c1ccccn1)c1ccc(CS(C)(=O)=O)cc1-2,32%,39%,84%,26%,72%,1.2 nM,33%,62%,0.69 nM,15%,68%,1.7 nM,1.5 nM
